One data set deals with T1, PDE6 from bovine retina (Bos taurus, UniProt P11541+P23439).
T1 construct: the PDE6 was isolated form bovine retinas; from tissue; host or cells: bovine retina
T1 sequence (P11541 2-856 limits assumed): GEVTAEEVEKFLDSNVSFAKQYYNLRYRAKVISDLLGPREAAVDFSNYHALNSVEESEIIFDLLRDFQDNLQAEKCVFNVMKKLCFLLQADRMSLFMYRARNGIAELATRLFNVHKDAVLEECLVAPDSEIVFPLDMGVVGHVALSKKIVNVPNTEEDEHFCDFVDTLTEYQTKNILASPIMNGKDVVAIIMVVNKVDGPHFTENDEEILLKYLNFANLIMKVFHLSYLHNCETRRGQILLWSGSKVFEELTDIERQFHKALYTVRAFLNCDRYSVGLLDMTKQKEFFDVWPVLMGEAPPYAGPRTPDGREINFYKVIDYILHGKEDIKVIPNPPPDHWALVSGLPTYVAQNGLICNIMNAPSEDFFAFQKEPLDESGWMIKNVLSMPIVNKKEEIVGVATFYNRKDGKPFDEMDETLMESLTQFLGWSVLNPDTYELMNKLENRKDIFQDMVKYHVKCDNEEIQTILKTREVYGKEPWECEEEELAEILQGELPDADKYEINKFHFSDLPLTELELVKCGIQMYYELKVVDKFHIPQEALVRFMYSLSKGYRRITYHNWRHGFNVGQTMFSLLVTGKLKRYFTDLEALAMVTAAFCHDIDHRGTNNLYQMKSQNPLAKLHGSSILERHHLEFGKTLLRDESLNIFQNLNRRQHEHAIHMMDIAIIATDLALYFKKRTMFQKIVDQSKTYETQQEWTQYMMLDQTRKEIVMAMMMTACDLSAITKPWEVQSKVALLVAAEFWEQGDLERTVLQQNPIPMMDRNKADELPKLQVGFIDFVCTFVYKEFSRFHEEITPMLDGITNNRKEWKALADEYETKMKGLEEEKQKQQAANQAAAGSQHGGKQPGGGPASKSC
T1 sequence (P23439 2-850 limits assumed): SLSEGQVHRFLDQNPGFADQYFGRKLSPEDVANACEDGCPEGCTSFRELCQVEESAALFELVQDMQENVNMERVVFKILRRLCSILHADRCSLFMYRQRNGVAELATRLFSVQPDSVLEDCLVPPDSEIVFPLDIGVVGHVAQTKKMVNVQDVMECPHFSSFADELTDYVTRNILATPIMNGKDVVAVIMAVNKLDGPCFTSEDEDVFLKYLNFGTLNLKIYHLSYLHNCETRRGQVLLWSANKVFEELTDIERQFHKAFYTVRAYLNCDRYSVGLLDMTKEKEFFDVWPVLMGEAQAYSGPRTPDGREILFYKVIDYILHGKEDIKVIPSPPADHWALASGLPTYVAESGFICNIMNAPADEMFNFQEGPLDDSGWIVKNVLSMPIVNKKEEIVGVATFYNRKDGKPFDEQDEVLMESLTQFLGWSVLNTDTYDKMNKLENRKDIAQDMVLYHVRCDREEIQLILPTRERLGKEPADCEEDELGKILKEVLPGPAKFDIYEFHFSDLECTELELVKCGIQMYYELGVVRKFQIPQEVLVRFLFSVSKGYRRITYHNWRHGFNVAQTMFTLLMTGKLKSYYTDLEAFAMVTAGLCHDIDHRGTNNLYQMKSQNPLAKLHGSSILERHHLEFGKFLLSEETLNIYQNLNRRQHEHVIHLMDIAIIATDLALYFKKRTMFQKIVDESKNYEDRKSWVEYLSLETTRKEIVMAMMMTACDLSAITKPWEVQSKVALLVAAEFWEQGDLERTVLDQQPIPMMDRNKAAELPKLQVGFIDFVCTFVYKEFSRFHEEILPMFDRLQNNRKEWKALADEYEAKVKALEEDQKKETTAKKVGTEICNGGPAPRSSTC
Briefly: PDE6 inhibitory activity test (scintillation proximity assay). The format is biochemical. Particulars: for pIC50: PDE6 from bovine retina; for PDE6 IC50/PDE5 IC50: selectivity of PDE5 versus PDE6. The text has this:
(§1) The PDE5 and PDE3 were isolated form human platelets, while the PDE6 was isolated form bovine retinas. The enzyme inhibitory activity test conducted immediately after the enzymes had been isolated, using a scintillation proximity assay for the direct detection of AMP/GMP by the TRKQ7100 and TRKQ7090 kit. In summary, the effect of PDE inhibitors was investigated by assaying a fixed amount of enzyme in the presence of varying inhibitor concentrations and low substrate. The final assay volume was made up to 100 μl with 10 μl assay buffer (50 mM Tris/HCl PH 7.5, 8.3 mM MgCl2, 1.7 mM EGTA), and water. Reactions were initiated with enzyme, incubate for 30 minutes at 30° C. and terminated with 50 μl yttrium silicate SPA beads suspension containing zinc sulphate. Shook for 20 minutes and settled for 30 minutes in the dark, then counted on a BECKMAN LS6500 MULTI-PURPOSE SCINTILLATION COUNTER. The IC50 value for the compounds according the present invention was calculated according the counts.
A general note: Scintillation proximity formats need no separation of bound from free tracer.

Data set [1] has as its target T2, PDE5 from human platelets (Homo sapiens, UniProt O76074).
T2 construct: from tissue; host or cells: human platelets
Briefly: PDE5 inhibitory activity test (scintillation proximity assay). The format is biochemical.
Source text: as §1
According to the above-mentioned method, the inhibitory activities of some compounds of formula IA and IB according to the invention against PDE5 from human platelets were determined.

For the next data set, the system named is male KM mouse. The data set can be described thus: Acute oral toxicity test. The class given is in vivo. The following applies: single oral dose of 3 g/kg, 10 or 11 mice per group. Here is the method:
In this test male KM mouse weighting 18-22 g were used, and 10 or 11 mouse were assigned randomly to each group. […] The animals were fasted for 12 hours before the administration.

This note sets out measurements from patent publication US20080318949A1, “Pyrazolopyrimidinone Derivatives, Their Preparation And Their Use” (Topharman Shanghai Co., Ltd, priority 2005, published 2008).

pIC50: −log10 of the molar value.

The term pIC50 denotes the IC50 on a negative log10 scale, so that one unit is a factor of ten. The low end stands for a large IC50, the high end for a small IC50. For `CCCOc1ccc(S(=O)(=O)N(CCOC(C)=O)CCOC(C)=O)cc1-c1nc2c(CCC)nn(C)c2c(=O)[nH]1` [Example 1, 1-methyl-5-{2-propyloxy-5-[bis(2-acetoxyethyl)amidosulfonyl]phenyl}-3-n-propyl-1,6-dihydro-7H-pyrazolo[4,3-d]pyrimidin-7-one], the negative logarithm of the IC50 (pIC50) against PDE6 from bovine retina was 7.77; in data set [1] (PDE5 from human platelets), 10.10. At PDE6 from bovine retina, the “PDE6 IC50/PDE5 IC50” value was found to be 210.
In the data set on male KM mouse, “1-methyl-5-{2-propoxy-5-[bis(3-methoxypropyl)amidosulfonyl]phenyl}-3-n-propyl-1,6-dihydro-7H-pyrazolo[4,3-d]pyrimidin-7-one [Example 103]” showed a Number of death of 0 and a mortality rate of 0%. The pIC50 in data set [1] (PDE5 from human platelets) is 8.25.
For `CCCOc1ccc(S(=O)(=O)N(CCO)CCO)cc1-c1nc2c(CCC)nn(C)c2c(=O)[nH]1` [Example 2, 1-methyl-5-{2-propyloxy-5-[bis(2-hydroxyethyl)amidosulfonyl]phenyl}-3-n-propyl-1,6-dihydro-7H-pyrazolo[4,3-d]pyrimidin-7-one], the values for the negative-log IC50 (pIC50) (against PDE6 from bovine retina; in data set [1] (PDE5 from human platelets)) were 7.25 and 9.88, respectively. The “PDE6 IC50/PDE5 IC50” value at PDE6 from bovine retina came to 425.
The corresponding values for `CCCOc1ccc(S(=O)(=O)N(CCN2CCOCC2)Cc2ccccc2)cc1-c1nc2c(CCC)nn(C)c2c(=O)[nH]1` [Example 24, 1-methyl-5-{2-propoxy-5-[[1-benzyl-1-(2-morpholin-1-yl)ethyl]amidosulfonyl]phenyl}-3-n-propyl-1,6-dihydro-7H-pyrazolo[4,3-d]pyrimidin-7-one] are 8.24, 10.06 and 65.6.
As to “1-methyl-5-{2-propoxy-5-[[1-ethyl-1-(3-morpholin-1-yl)propyl]amidosulfonyl]phenyl}-3-n-propyl-1,6-dihydro-7H-pyrazolo[4,3-d]pyrimidin-7-one [Example 112]”, in the data set with male KM mouse, the Number of death is on record as 2 and the mortality rate turned out to be 20%. This compound also gave a negative-log IC50 (pIC50) in data set [1] (PDE5 from human platelets) of 7.92.
Take `CCCc1nn(C)c2c(=O)[nH]c(-c3cc(S(=O)(=O)N(CCN4CCOCC4)Cc4ccccc4)ccc3OCC)nc12` [Example 25, 1-methyl-5-{2-ethoxy-5-[[1-benzyl-1-(2-morpholin-1-yl)ethyl]amidosulfonyl]phenyl}-3-n-propyl-1,6-dihydro-7H-pyrazolol[4,3-d]pyrimidin-7-one]: the results for the pIC50 (on PDE6 from bovine retina; in data set [1] (PDE5 from human platelets)) were 7.03 and 9.47, respectively. Also, the “PDE6 IC50/PDE5 IC50” value at PDE6 from bovine retina is reported as 279.
The like results for `CCCc1nn(C)c2c(=O)[nH]c(-c3cc(S(=O)(=O)N(CCOC(C)=O)CCOC(C)=O)ccc3OCC)nc12` [Example 4, 1-methyl-5-{2-ethoxy-5-[bis(2-acetoxyethyl)amidosulfonyl]phenyl}-3-n-propyl-1,6-dihydro-7H-pyrazolo[4,3-d]pyrimidin-7-one] were, in that order, 6.56, 8.47 and 82.1.
For `CCCc1nn(C)c2c(=O)[nH]c(-c3cc(S(=O)(=O)N(CCOC(=O)c4cccnc4)CCOC(=O)c4cccnc4)ccc3OCC)nc12` [Example 5, 1-methyl-5-{2-ethoxy-5-[bis(2-nicotinoyloxyethyl)amidosulfonyl]phenyl}-3-n-propyl-1,6-dihydro-7H-pyrazolo[4,3-d]pyrimidin-7-one], at PDE6 from bovine retina, the pIC50 was 6.88 and the “PDE6 IC50/PDE5 IC50” value amounted to 131. Further, the pIC50 in data set [1] (PDE5 from human platelets) was 8.97.
In the case of “1-methyl-5-{2-propoxy-5-[bis(2-nicotinoyloxyethyl)amidosulfonyl]phenyl}-3-n-propyl-1,6-dihydro-7H-pyrazolo[4,3-d]pyrimidin-7-one [Example 3]”, the results for the pIC50 (against PDE6 from bovine retina; in data set [1] (PDE5 from human platelets); in data set [1] (PDE5 in the PDE6 selectivity table)) were 7.48, 10.25 and 10.25, respectively. The “PDE6 IC50/PDE5 IC50” value at PDE6 from bovine retina was 588.
For `CCCc1nn(C)c2c(=O)[nH]c(-c3cc(S(=O)(=O)N(CC)CCN(CC)CCOC(C)=O)ccc3OCC)nc12` [Example 17], the pIC50 in data set [1] (PDE5 from human platelets) was 8.07.
